# Experimental data published in ChEMBL document CHEMBL1145114, “The combi-targeting concept: chemical dissection of the dual targeting properties of a series of "combi-triazenes"” (J Med Chem, 2003).
# What was measured:
# NIH3T3 [1] = test: cells; conditions: Mus musculus
# Description: Selective inhibition of serum stimulated growth of NIH3T3 isogenic cells
# [2] = molecular target: Epidermal growth factor receptor (Homo sapiens, UniProt P00533); test: In vitro inhibition of Epidermal growth factor receptor tyrosine kinase isolated from A431 (human carcinoma).
# NIH3T3 [3] = test: cells; conditions: Mus musculus; remark: listed apart in the source
# Description: Selective inhibition of serum stimulated growth of NIH3T3neu isogenic cells
# A-431 = test: In vitro inhibition of A431 (human carcinoma) cell basal growth.; assay type: functional, cell-based
# Chain of Epidermal growth factor receptor (P00533 whole entry): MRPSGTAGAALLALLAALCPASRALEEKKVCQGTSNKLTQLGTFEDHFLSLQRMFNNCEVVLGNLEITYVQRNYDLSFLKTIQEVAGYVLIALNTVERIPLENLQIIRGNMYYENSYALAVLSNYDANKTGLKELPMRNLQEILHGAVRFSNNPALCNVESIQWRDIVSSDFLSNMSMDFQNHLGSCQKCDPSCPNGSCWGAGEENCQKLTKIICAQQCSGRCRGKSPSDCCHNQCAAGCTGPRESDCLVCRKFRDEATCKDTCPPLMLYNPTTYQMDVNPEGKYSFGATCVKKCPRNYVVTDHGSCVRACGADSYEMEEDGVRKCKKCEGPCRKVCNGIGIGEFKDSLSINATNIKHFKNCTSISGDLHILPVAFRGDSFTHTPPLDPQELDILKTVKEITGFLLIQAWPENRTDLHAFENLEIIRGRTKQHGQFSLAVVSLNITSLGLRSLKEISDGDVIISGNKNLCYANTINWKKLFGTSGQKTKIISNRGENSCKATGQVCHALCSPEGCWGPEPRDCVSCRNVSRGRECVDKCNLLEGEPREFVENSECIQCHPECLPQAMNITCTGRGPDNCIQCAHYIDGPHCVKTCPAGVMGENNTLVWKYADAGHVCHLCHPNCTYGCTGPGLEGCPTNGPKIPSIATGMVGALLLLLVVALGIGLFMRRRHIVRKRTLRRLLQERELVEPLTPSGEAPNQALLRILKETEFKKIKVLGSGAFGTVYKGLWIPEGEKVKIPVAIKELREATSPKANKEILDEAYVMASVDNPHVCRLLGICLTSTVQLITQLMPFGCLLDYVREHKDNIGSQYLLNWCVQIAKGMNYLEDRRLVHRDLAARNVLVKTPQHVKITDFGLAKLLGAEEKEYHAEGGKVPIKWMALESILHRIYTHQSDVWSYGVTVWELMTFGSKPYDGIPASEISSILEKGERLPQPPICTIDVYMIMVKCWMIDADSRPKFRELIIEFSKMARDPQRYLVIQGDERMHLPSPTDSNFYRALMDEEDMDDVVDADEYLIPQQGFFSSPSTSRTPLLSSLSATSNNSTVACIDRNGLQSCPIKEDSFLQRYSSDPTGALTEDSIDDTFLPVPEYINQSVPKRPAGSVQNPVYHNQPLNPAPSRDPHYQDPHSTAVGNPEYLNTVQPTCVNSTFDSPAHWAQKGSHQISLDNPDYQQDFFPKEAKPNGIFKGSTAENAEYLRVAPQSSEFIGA
Structure (SMILES),IC50 [2] [nM],IC50 (A-431) [µM],IC50 (NIH3T3 [1]) [µM],IC50 (NIH3T3 [3]) [µM]
CN(C)/N=N/c1ccc2ncnc(Nc3cccc(Br)c3)c2c1,11,100,52.5,3.74
CN(C)/N=N/c1ccc2ncnc(Nc3cccc(Cl)c3)c2c1,14,100,60.4,3.09
CN(C)/N=N/c1ccc2ncnc(NCc3ccccc3)c2c1,482,50.3,67.3,33.9
C/N=N/Nc1ccc2ncnc(Nc3cccc(C)c3)c2c1,–,23.2,68.3,9.69
Brc1cccc(Nc2ncnc3ccc(N/N=N/CCN4CCOCC4)cc23)c1,64,33,22.2,2.92
Brc1cccc(Nc2ncnc3ccc(NN=NCc4ccccn4)cc23)c1,238,11.4,30.6,4.06
Cc1cccc(Nc2ncnc3ccc(N)cc23)c1,–,65,90,7.2
CN(C)/N=N/c1ccc2ncnc(N(C)c3ccccc3)c2c1,13300,29.8,47,31.6
Brc1cccc(Nc2ncnc3ccc(NN=NCc4ccccc4)cc23)c1,25,20,60.2,11.2
Nc1ccc2ncnc(Nc3cccc(Br)c3)c2c1,–,45,52.9,4.1

# More lines, in order of falling IC50 (A-431), values ahead:
IC50 [2] [nM],IC50 (A-431) [µM],Structure (SMILES),IC50 (NIH3T3 [1]) [µM],IC50 (NIH3T3 [3]) [µM]
8400,116,CN(c1ccccc1)c1ncnc2ccc(N)cc12,71.4,99.4
24,94,Cc1cccc(Nc2ncnc3ccc(/N=N/N(C)C)cc23)c1,50.8,6.94
8000,89.5,CN=NNc1ccc2ncnc(N(C)c3ccccc3)c2c1,30.5,81
–,40,COCC/N=N/Nc1ccc2ncnc(Nc3cccc(Br)c3)c2c1,42.9,2.98
9300,25.1,CN(c1ccccc1)c1ncnc2ccc(NN=NCc3ccccn3)cc12,39.4,64.1
508,25,Nc1ccc2ncnc(NCc3ccccc3)c2c1,96.7,33.8
335,20,CN=NNc1ccc2ncnc(NCc3ccccc3)c2c1,50.3,34.9
–,16.7,C/N=N/Nc1ccc2ncnc(Nc3cccc(Cl)c3)c2c1,32.1,4.16
–,16,C/N=N/Nc1ccc2ncnc(Nc3cccc(Br)c3)c2c1,33,4.32
38,12.4,CN(C)CCN=NNc1ccc2ncnc(Nc3cccc(Br)c3)c2c1,16.7,3.4
